Reference: paper PMC5471252, “Anti-leukemia activity of a Hsp70 inhibitor and its hybrid molecules” (Scientific Reports, 2017)

Experiments:
[1] = system: HL-60 cells; assay: MTT assay, cell viability of HL-60 cells; type: cell-based; settings: Homo sapiens, 48 h, mean ± s.d., n = 3, read-out: IC50 values of compounds for leukemia cells
[2] = system: KG-1 cells; assay: MTT assay, cell viability of KG-1 cells; type: cell-based; settings: Homo sapiens, 48 h, mean ± s.d., n = 3, read-out: IC50 values of compounds for leukemia cells
[3] = system: THP-1 cells; assay: MTT assay, cell viability of THP-1 cells; type: cell-based; settings: Homo sapiens, 48 h, mean ± s.d., n = 3, read-out: IC50 values of compounds for leukemia cells
[4] = system: U937 cells; assay: MTT assay, cell viability of U937 cells; type: cell-based; settings: Homo sapiens, U-937, 48 h, mean ± s.d., n = 3, read-out: IC50 values of compounds for leukemia cells
[5] = system: Jurkat cells; assay: MTT assay, cell viability of Jurkat cells; type: cell-based; settings: Homo sapiens, 48 h, mean ± s.d., n = 3, read-out: IC50 values of compounds for leukemia cells
[6] = system: K562 cells; assay: MTT assay, cell viability of K562 cells; type: cell-based; settings: Homo sapiens, 48 h, mean ± s.d., n = 3, read-out: IC50 values of compounds for leukemia cells
[7] = system: human leukemia cells (HL-60, KG-1, THP-1, U937, Jurkat and K562 cells); assay: MTT assay, all tested leukemia cells (summary statements); settings: all tested leukemia cells, MTT, compared with Az, GD and imatinib
Method: To assess anti-leukemia activity of Az, several human leukemia cells (HL-60 cells, acute myeloid leukemia; Jurkat cells, acute T-lymphocytic leukemia; KG-1 cells, acute myeloid leukemia; U937 cells, acute myeloid leukemia; THP-1 cells, acute monocytic leukemia; K562 cells, chronic myeloid leukemia) were incubated with Az for 48 h. […] An MTT assay was then performed to measure cell viabilities.
Cells were exposed to each compound (a HCl salt form) at various concentrations for indicated time periods (24 or 48 h) in culture media. MTT assays were conducted according to known procedures. The absorbance at 570 nm was determined by employing a microplate reader (TECAN, Infinite® 200 PRO).

[8] = system: HL-60 and K562 cells; assay: Flow cytometry, fluorescein-annexin V and PI staining; type: cell-based, human; settings: 24 h; 10 µM Az, 10 µM GD or 4 µM Az-O3-GD
Method: (§1) To determine whether Az promotes leukemia cell death via apoptosis, acute leukemia HL-60 and chronic leukemia K562 cells were independently incubated with Az. The treated cells were then exposed to a mixed solution of fluorescein-annexin V and propidium iodide (PI) and flow cytometry analysis was conducted. […] The size of the treated cells was also assessed by using flow cytometry. […] We also investigated if the mitochondrial membrane potential in cells treated with Az is disrupted. To test this possibility, HL-60 and K562 cells were exposed to Az and subsequently stained with a membrane potential sensitive JC-1 probe. […] This serves as another evidence for apoptosis induced by Az.
HL-60 and K562 cells were incubated with each compound for 24 h in culture media. Cells were re-suspended with 500 μL binding buffer (10 mM HEPES, […] and 2.5 mM CaCl2, pH 7.5) and then incubated with the FITC-annexin V apoptosis detection kit with PI according to the protocol provided by the manufacturer. Flow cytometry was carried out by using a BD FACSVerse™ instrument (BD Biosciences) and the data were analyzed by using a FlowJo™ software (BD Biosciences).

[9] = system: HL-60 and K562 cells; assay: Flow cytometry, JC-1 mitochondrial membrane potential; type: cell-based, human; settings: 24 h; 10 µM Az or 4 µM Az-O3-GD
Method: as §1
JC-1 staining: HL-60 and K562 cells were treated with each compound and then with 2.5 μg/mL JC-1 (Anaspec) in PBS for 15 min. Flow cytometry was conducted with a BD FACSVerse™ instrument (the red fluorescence signal: λex = 550 nm, λem = 600 nm; the green fluorescence signal: λex = 485 nm, λem = 535 nm) and the data were analyzed using a FlowJo™ software.

[10] = system: caspase activity of HL-60 and K562 cells; assay: Caspase activity assay with Ac-DEVD-pNA in cell lysates; type: cell-based, human; settings: lysates of cells treated 24 h
Method: Because Az inhibits the association of Hsp70 with Apaf-1, caspase associated proteolytic activities should increase in cells treated with Az. To determine whether this event occurs, caspase activities of HL-60 and K562 cells treated with Az were measured by using the colorimetric substrate, Ac-DEVD-pNA (pNA, p-nitroaniline). […] We also examined whether leukemia cells are protected from the effect of Az by ZVAD-FMK (benzyloxycarbonyl-Val-Ala-Asp(OMe) fluoromethyl ketone, a cell-permeable inhibitor of pan-caspases). HL-60 and K562 cells were pre-incubated with ZVAD-FMK for 3 h and subsequently exposed to Az.
HL-60 and K562 cells treated with each compound for 24 h were lysed in a buffer containing 50 mM HEPES (pH 7.4), 5 mM CHAPS and 5 mM DTT. Assay buffer containing 20 mM HEPES (pH 7.4), 0.01% CHAPS, 5 mM DTT and 2 mM EDTA was added to cell lysates. Caspase activity was measured in the absence or presence of acetyl-DEVD-pNA (200 μM) (Sigma-Aldrich) by using a microplate reader (monitored at 405 nm).

[11] = system: AIF translocation in HL-60 and K562 cells; assay: AIF translocation to the nucleus (western blot, immunocytochemistry); type: cell-based, human; settings: 24 h; 2 μM for Az-O3-GD
Description: Apoptosis-inducing factor (AIF) is known to be translocated from the cytosol to the nucleus during caspase-independent apoptosis (Supplementary Fig. S8b)[39]. In addition, it is also known that Hsp70 interacts with AIF directly and this interacting event results in blocking translocation of AIF to the nucleus and, in turn, prevents caspase-independent apoptosis. Because of these phenomena, we tested if Az has an influence on AIF-mediated caspase-independent apoptosis. To probe this issue, HL-60 and K562 cells were exposed to Az and the levels of AIF in the cytosolic and nuclear fractions were then determined. AIF translocation to the nucleus was not observed in Az-treated cells, based on western blot analysis (Fig. 4d). Additional evidence to support this conclusion was obtained from immunocytochemical analysis of leukemia cells treated with Az (Fig. 4d).
(§2) Western blot analysis. […] peroxidase-conjugated goat anti-rabbit IgG (1:2000, Santa Cruz Bio Technology) and goat anti-mouse IgG (1:2000, Santa Cruz Bio Technology) were used as the secondary antibodies. The blots were developed by using a West-ZOL® plus Western Blot Detection System (Intron Biotechnology Inc., South Korea). Western blot signals were analyzed by using a G:BOX Chemi Fluorescent & Chemiluminescent Imaging System.
Immunocytochemistry. […] Cell images were analyzed using the ZEN 2011 software.

[12] = system: Hsp70 level in HL-60 and K562 cells; assay: Western blot of Hsp70 and Hsp90 levels; type: cell-based, human; settings: cells treated 24 h
Method: Because Az-O3-GD promotes caspase activation in leukemia cells, it was anticipated that procaspase-9, procaspase-3 and PARP would be cleaved in treated cells. To test this possibility, HL-60 and K562 cells were exposed to Az-O3-GD, along with Az and GD as controls and western blot analysis was then carried out. […] Although Az-O3-GD upregulates Hsp70, the presence of the Hsp70 inhibitor in this hybrid causes its cytotoxicity against leukemia cells to be higher than that of GD. Finally, we examined the effect of Az-O3-GD on AIF-mediated caspase-independent apoptosis. To this end, HL-60 and K562 cells were incubated with Az-O3-GD for 24 h.
as §2

Work on COc1ccc(-c2nc(-c3cc(C(F)(F)F)cc(C(F)(F)F)c3)n(Cc3ccc(C(=O)NCCCOCCOCCOCCCNC4=C5CC(C)CC(OC)C(O)C(C)C=C(C)C(OC(N)=O)C(OC)C=CC=C(C)C(=O)NC(=CC4=O)C5=O)cc3)c2-c2ccc(OC)cc2)cc1 (stereo not drawn) [Az-O3-GD] yielded an IC50 [1] of 740 ± 270 nM, an IC50 [2] of 1310 ± 300 nM and an IC50 [3] of 620 ± 270 nM. For the same compound, the IC50 [4] was 1120 ± 440 nM, the IC50 [5] was 570 ± 180 nM and the IC50 [6] was 720 ± 260 nM. For the same compound, the “cytotoxicity relative to the individual inhibitors” value [7] was “greatly enhanced cytotoxicities”, the “apoptosis, annexin V binding and PI uptake” value [8] was “induces apoptosis” and the “mitochondrial membrane potential, JC-1 red fluorescence” value [9] was “significant decrease in the intensity of red fluorescence from JC-1”. The “caspase activity of treated cells” value [10] was “increase”, the “AIF translocation to the nucleus” value [11] was “does not elicit the translocation of AIF to the nucleus” and the “translational level of Hsp70” value [12] was “upregulation of Hsp70”.
